US8501794B2, “Compounds as cannabinoid receptor ligands” (priority 2007, dated 2013)

Columns and labels:
rat CB2 [1] = biological target: T1, rat CB2 (Rattus norvegicus, UniProt Q9QZN9); assay: rat CB2 cyclase functional assay (HitHunter cAMP, HEK cells); assay type: cell-based; set-up: expressed in transfected cells; host or cells: HEK; settings: forskolin 18 μM
T1 sequence (Q9QZN9 1-360): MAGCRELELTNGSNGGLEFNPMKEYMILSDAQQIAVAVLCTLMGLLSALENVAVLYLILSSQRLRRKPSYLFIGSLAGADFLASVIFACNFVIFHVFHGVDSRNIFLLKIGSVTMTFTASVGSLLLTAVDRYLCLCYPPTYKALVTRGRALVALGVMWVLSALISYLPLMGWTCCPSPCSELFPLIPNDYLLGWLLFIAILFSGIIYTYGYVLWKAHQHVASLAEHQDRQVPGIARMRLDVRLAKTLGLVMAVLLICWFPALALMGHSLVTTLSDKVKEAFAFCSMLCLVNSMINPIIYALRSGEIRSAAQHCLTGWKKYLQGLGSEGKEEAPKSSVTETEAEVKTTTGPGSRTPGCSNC

human CB2 receptors = biological target: T2, human CB2 receptors (Homo sapiens, UniProt P34972); assay: human CB2 radioligand binding assay ([3H]CP-55,940 competition)
T2 construct: expressed in transfected cells; host or cells: HEK293

rat CB2 [2] = biological target: T1, rat CB2; assay: rat CB2 radioligand binding assay ([3H]CP-55,940 competition); set-up: expressed in transfected cells; host or cells: HEK293

T2 sequence (P34972 whole entry): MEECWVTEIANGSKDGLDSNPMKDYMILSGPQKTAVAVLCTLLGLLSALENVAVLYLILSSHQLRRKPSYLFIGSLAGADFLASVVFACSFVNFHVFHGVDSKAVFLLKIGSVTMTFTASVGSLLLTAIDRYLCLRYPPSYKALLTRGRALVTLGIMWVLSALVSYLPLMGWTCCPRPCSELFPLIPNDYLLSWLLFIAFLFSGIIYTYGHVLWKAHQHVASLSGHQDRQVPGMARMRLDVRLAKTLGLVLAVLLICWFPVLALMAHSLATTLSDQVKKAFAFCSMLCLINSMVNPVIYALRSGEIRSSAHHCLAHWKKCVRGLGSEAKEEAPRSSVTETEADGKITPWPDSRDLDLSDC

Compound	EC50 (rat CB2 [1])	Ki (human CB2 receptors)	Ki (rat CB2 [2])
CCCCc1cn(C(C)(C)C)s/c1=N\C(=O)[C@@]1(C)CC[C@@H](C(=O)NCC(F)(F)F)C1(C)C [Example 240, (1S,3R)—N^1-[(5Z)-4-butyl-2-tert-butylisothiazol-5(2H)-ylidene]-1,2,2-trimethyl-N^3-(2,2,2-trifluoroethyl)cyclopentane-1,3-dicarboxamide]	2.5 nM	100 nM	156 nM
CCCCc1cn(C(C)(C)C)s/c1=N\C(=O)[C@]1(C)CC[C@H](NC(N)=O)C1(C)C [Example 245, (1R,3S)-3-[(aminocarbonyl)amino]-N-[(5Z)-4-butyl-2-tert-butylisothiazol-5(2H)-ylidene]-1,2,2-trimethylcyclopentanecarboxamide]	9.6 nM	32 nM	35 nM
